Reference: patent publication EP0354694A1, “Therapeutic [1]benzothiopyrano[4,3-c]pyrazoles” (The Boots Company PLC, priority 1988, dated 1990)

Test system: BALB/c mice
Test: cutaneous hypersensitivity test (CH test), oxazolone-induced ear swelling
Type: in vivo
Settings: Mus musculus, ip, 192 h; female BALB/c mice, intraperitoneal, daily from sensitisation for 8 days; lowest dose used with 20% or greater significant (p <0.05) reduction in ear swelling in two out of three CH tests; read-out: Minimum Effective Dose
Method: This test was carried out in the following way.
Female BALB/c mice, weight range 16-24 g, were used in groups of eight. The abdomen of each mouse was shaved and 20 µl of a solution of a sensitising agent, 5% w/v 4-ethoxymethylene-2-phenyl-2-oxazolin-5-one (oxazolone) in acetone:ethanol (1:1 by volume), was applied to the shaved area. Immediately after sensitisation, the test compound in one of the dosages listed below was injected intraperitoneally as a suspension in 1.5% v/v sorbitan esters, under the trade name Tween 80, in sterile water (100 µl). 100 µl of the same suspension was injected likewise every 24 hours for a further 7 days. The dosages used were selected from the following values: 50, 30, 10, 3, 1, 0.3, 0.1, 0.03 or 0.01 mg/kg.
Two groups of eight BALB/c mice were used as a control simultaneously with each test in a similar manner to that described above except that no test compound was included in the daily injections.
On the seventh day after sensitisation, 10 µl of a solution of 1% w/v oxazolone in acetone: olive oil (either 1:1 or 3:1 by volume) was applied to one ear (the challenged ear) of each of the test mice and the control mice. After 24 hours the thickness of the challenged ear and the thickness of the non-challenged ear of the same animal were measured with an engineer's screw gauge micrometer. The difference in thickness between the challenged ear and the non-challenged ear in each animal is a measure of the response of that animal to oxazolone. A comparison between the response of mice treated with the test compound and mice treated with the control indicates the effectiveness of the test compound as an immunomodulatory agent. The compounds were considered to be active at a particular dose if a 20% or greater reduction in ear swelling, which was statistically significant (p <0.05) according to Dunnett's test, between treated and control groups was obtained in two out of three CH tests, (or, where more than three tests have been carried out, a majority of the tests) at that dose (see for example Int. Arch. Allergy, 38, p246-259 (1970)).
Each of the compounds of formula I illustrated in Table A below was active at 50 mg/kg in two out of three tests at 50 mg/kg unless indicated otherwise (see Notes following the Table). The minimum effective dose (ie the lowest dose of those used at which the compound is active as defined above) for each compound is given in Table A. The Example (Ex) number or numbers listed adjacent to each compound indicates the process or processes illustrating the preparation of that compound in the Examples.

CC12CSc3ccccc3C1=NN(c1ccc(Cl)cc1)C2=O (stereo not drawn) [Example 11/ 23, 2-(4-chlorophenyl)-3a-methyl-3a,4-dihydro[1]benzothiopyrano[4,3-c]-pyrazol-3(2H)-one]
minimal effective dose: 3 mg/kg

CC12CSc3ccccc3C1=NN(c1ccc(F)cc1)C2=O (stereo not drawn) [Example 12, 2-(4-fluorophenyl)-3a-methyl-3a,4-dihydro[1]benzothiopyrano[4,3-c]-pyrazol-3(2H)-one]
minimal effective dose: 50 mg/kg

CC12CSc3ccccc3C1=NN(c1ccc(Cl)c(Cl)c1)C2=O (stereo not drawn) [Example 13/ 24, 2-(3,4-dichlorophenyl)-3a-methyl-3a,4-dihydro[1]benzothiopyrano-[4,3-c]pyrazol-3(2H)-one]
minimal effective dose: 0.3 mg/kg

CC12CSc3ccccc3C1=NN(c1cccc(Cl)c1)C2=O (stereo not drawn) [Example 14, 2-(3-chlorophenyl)-3a-methyl-3a,4-dihydro[1]benzothiopyrano[4,3-c]-pyrazol-3(2H)-one]
minimal effective dose: 3 mg/kg

CC12CSc3ccc(Cl)cc3C1=NN(c1ccc(Cl)c(Cl)c1)C2=O (stereo not drawn) [Example 15, 8-chloro-2-(3,4-dichlorophenyl)-3a-methyl-3a,4-dihydro[1]benzothio-pyrano[4,3-c]pyrazol-3(2H)-one]
minimal effective dose: 50 mg/kg

CC12CSc3ccccc3C1=NN(c1ccc(C(F)(F)F)cc1)C2=O (stereo not drawn) [Example 16, 3a-methyl-2-(4-trifluoromethylphenyl)-3a,4-dihydro[1]benzothiopyrano-[4,3-c]pyrazol-3(2H)-one]
minimal effective dose: 0.3 mg/kg

CC12CSc3ccccc3C1=NN(c1ccc(Br)c(Cl)c1)C2=O (stereo not drawn) [Example 17, 2-(4-bromo-3-chlorophenyl)-3a-methyl-3a,4-dihydro[1]benzothiopyrano[4,3-c]-pyrazol-3(2H)-one]
minimal effective dose: 0.3 mg/kg

CC12CSc3ccccc3C1=NN(c1ccc(F)c(Cl)c1)C2=O (stereo not drawn) [Example 18, 2-(3-chloro-4-fluorophenyl)-3a-methyl-3a,4-dihydro[1]benzothiopyrano[4,3-c]-pyrazol-3(2H)-one]
minimal effective dose: 3 mg/kg

Cc1ccc(N2N=C3c4ccccc4SCC3(C)C2=O)cc1Cl (stereo not drawn) [Example 19, 2-(3-chloro-4-methylphenyl)-3a-methyl-3a,4-dihydro[1]benzothiopyrano[4,3-c]-pyrazol-3(2H)-one]
minimal effective dose: 3 mg/kg

CC12CSc3ccccc3C1=NN(c1ccc(Br)cc1)C2=O (stereo not drawn) [Example 20, 2-(4-bromophenyl)-3a-methyl-3a,4-dihydro[1]benzothiopyrano[4,3-c]-pyrazol-3(2H)-one]
minimal effective dose: 1 mg/kg

CSc1ccc(N2N=C3c4ccccc4SCC3(C)C2=O)cc1 (stereo not drawn) [Example 21, 3a-methyl-2-(4-methylthiophenyl)-3a,4-dihydro[1]benzothiopyrano[4,3-c]-pyrazol-3(2H)-one]
minimal effective dose: 50 mg/kg

CC12CSc3ccc(F)cc3C1=NN(c1ccc(Cl)cc1)C2=O (stereo not drawn) [Example 22, 2-(4-chlorophenyl)-8-fluoro-3a-methyl-3a,4-dihydro[1]benzothiopyrano[4,3-c]-pyrazol-3(2H)-one]
minimal effective dose: 50 mg/kg

CC1Sc2ccccc2-c2[nH]n(-c3ccc(Cl)cc3)c(=O)c21 (stereo not drawn) [Example 25, 2-(4-chlorophenyl)-4-methyl-1,4-dihydro[1]benzothiopyrano[4,3-c]-pyrazol-3(2H)-one]
minimal effective dose: 30 mg/kg

CC1Sc2ccccc2-c2[nH]n(-c3ccc(Cl)c(Cl)c3)c(=O)c21 (stereo not drawn) [Example 26, 2-(3,4-dichlorophenyl)-4-methyl-1,4-dihydro[1]benzothiopyrano[4,3-c]-pyrazol-3(2H)-one]
minimal effective dose: 50 mg/kg

CC1Sc2ccccc2-c2[nH]n(-c3ccc(F)cc3)c(=O)c21 (stereo not drawn) [Example 27, 2-(4-fluorophenyl)-4-methyl-1,4-dihydro[1]benzothiopyrano[4,3-c]-pyrazol-3(2H)-one]
minimal effective dose: 50 mg/kg

CCC1Sc2ccccc2-c2[nH]n(-c3ccc(Cl)cc3)c(=O)c21 (stereo not drawn) [Example 28, 2-(4-chlorophenyl)-4-ethyl-1,4-dihydro[1]benzothiopyrano[4,3-c]-pyrazol-3(2H)-one]
minimal effective dose: 50 mg/kg

CC1Sc2ccccc2-c2[nH]n(-c3ccc(C(F)(F)F)cc3)c(=O)c21 (stereo not drawn) [Example 29/ 34/ 44, 4-methyl-2-(4-trifluoromethylphenyl)-1,4-dihydro[1]benzothiopyrano[4,3-c]-pyrazol-3(2H)-one]
minimal effective dose: 3 mg/kg

CC1Sc2ccccc2-c2[nH]n(-c3ccc(Br)cc3)c(=O)c21 (stereo not drawn) [Example 30, 2-(4-bromophenyl)-4-methyl-1,4-dihydro[1]benzothiopyrano[4,3-c]-pyrazol-3(2H)-one]
minimal effective dose: 3 mg/kg

Cc1sc2ccccc2c2nn(-c3ccc(Cl)cc3)c(=O)c1-2 [Example 35, 2-(4-chlorophenyl)-4-methyl[1]-benzothiopyrano[4,3-c]pyrazol-3(2H)-one]
minimal effective dose: 10 mg/kg

Cc1sc2ccccc2c2nn(-c3ccc(F)cc3)c(=O)c1-2 [Example 36, 2-(4-fluorophenyl)-4-methyl[1]benzo-thiopyrano[4,3-c]pyrazol-3(2H)-one]
minimal effective dose: 10 mg/kg

CCc1sc2ccccc2c2nn(-c3ccc(Cl)cc3)c(=O)c1-2 [Example 37, 2-(4-chlorophenyl)-4-ethyl[1]benzo-thiopyrano[4,3-c]pyrazol-3(2H)-one]
minimal effective dose: 50 mg/kg

Cc1sc2ccccc2c2nn(-c3ccc(C(F)(F)F)cc3)c(=O)c1-2 [Example 38, 4-methyl-2-(4-trifluoromethyl-phenyl)[1]benzothiopyrano[4,3-c]-pyrazol-3(2H)-one]
minimal effective dose: 0.3 mg/kg

Cc1sc2ccccc2c2nn(-c3ccc(Br)cc3)c(=O)c1-2 [Example 39, 2-(4-bromophenyl)-4-methyl[1]benzo-thiopyrano[4,3-c]pyrazol-3(2H)-one]
minimal effective dose: 50 mg/kg

COc1ccc(-n2nc3c4ccccc4sc(C)c-3c2=O)cc1 [Example 40, 2-(4-methoxyphenyl)-4-methyl[1]benzo-thiopyrano[4,3-c]pyrazol-3(2H)-one]
minimal effective dose: 50 mg/kg

Cc1ccc2sc(C)c3c(=O)n(-c4ccc(Cl)cc4)nc-3c2c1 [Example 41, 2-(4-chlorophenyl)-4,8-dimethyl[1]-benzothiopyrano[4,3-c]pyrazol-3(2H)-one]
minimal effective dose: 3 mg/kg

Cc1sc2ccccc2c2nn(-c3cccc(Cl)c3)c(=O)c1-2 [Example 42, 2-(3-chlorophenyl)-4-methyl[1]benzo-thiopyrano[4,3-c]pyrazol-3(2H)-one]
minimal effective dose: 50 mg/kg

Cc1sc2ccccc2c2nn(-c3ccc(Cl)c(Cl)c3)c(=O)c1-2 [Example 43, 2-(3,4-dichlorophenyl)-4-methyl[1]-benzothiopyrano[4,3-c]pyrazol-3(2H)-one]
minimal effective dose: 3 mg/kg
